Laboratory results as given in patent publication US11629171B2, “Beta-hairpin peptidomimetics” (POLYPHOR AG, priority 2017, dated 2023).
Converted amounts (≈) assume the structure as drawn. Where a SMILES comes first, the peptide text is derived from it. Bridges are numbered along the chain shown (N, C = ends). Roman numbers before positions name the chains, in order. [ ]: non-standard residue; d: D form. The star is where a group is joined. Heptanoyl(6-Me) = CC(C)CCCCC(=O)*; Tle = CC(C)(C)[C@H](N)C(=O)O; dDab = NCC[C@@H](N)C(=O)O; hSer = N[C@@H](CCO)C(=O)O; Orn = NCCC[C@H](N)C(=O)O; Dab = NCC[C@H](N)C(=O)O; Dap = NC[C@H](N)C(=O)O

How the values were obtained:
Format in all cases: cell-based
[1] = test system: Pseudomonas aeruginosa ATCC 27853; settings: ATCC 27853
In short: (§1)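 MIC in μg/mL, read as no visible growth after 18-20 hours at 35° C. Peptides were serially diluted two-fold in MH-II broth plus P-80 (0.002% final, v/v) and inoculated at about 10^6 CFU/mL following the CLSI broth microdilution standard.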

[2] = test system: Klebsiella pneumoniae 968733; settings: 968733
In short: as §1

Escherichia coli 926415 = settings: 926415
In short: as §1

[3] = test system: Acinetobacter baumannii DSM 30008; settings: DSM 30008
In short: as §1

[4] = test system: Escherichia coli ATCC 25922; settings: ATCC 25922
In short: as §1

[5] = test system: Klebsiella pneumoniae SSI #3010; settings: SSI #3010
In short: as §1

[6] = test system: Enterobacter cloacae 848840; settings: 848840
In short: as §1

[7] = test system: Acinetobacter baumannii 872842; settings: 872842
In short: as §1

[8] = test system: human red blood cells (hRBC); experiment: Hemolysis; settings: red cells of human, 1 h, 200
In short: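 hRBC washed 4× in PBS; 200 μg/mL peptide + 20% (v/v) hRBC, 1 h, 37° C, 300 rpm. Spin, supernatant ~7.5-fold diluted, OD540 blank corrected. % hemolysis = OD540 peptide / OD540 Triton X-100 × 100.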

SMILES	MIC [1]	MIC [2]	MIC (Escherichia coli 926415)	MIC [3]	MIC [4]	MIC [5]	MIC [6]	MIC [7]	Hemolysis at 200 μg/mL [8]
CC(=O)N[C@H](C(=O)N[C@H]1CCNC(=O)[C@@H]([C@H](C)O)NC(=O)[C@H](C(C)(C)C)NC(=O)[C@H](CO)NC(=O)[C@H](Cc2c[nH]c3ccccc23)NC(=O)[C@H](CCO)NC(=O)[C@@H](CCN)NC(=O)[C@H](CCC(=O)N[C@@H](CCN)C(=O)N[C@H](C(=O)N[C@@H](CN)C(=O)N[C@H]2CCNC(=O)[C@H]([C@@H](C)O)NC(=O)[C@H](CCN)NC(=O)[C@H](CCN)NC(=O)[C@H](CC(C)C)NC(=O)[C@@H](CC(C)C)NC(=O)[C@H](CCN)NC2=O)[C@@H](C)O)NC(=O)[C@H](CN)NC(=O)[C@H](Cc2ccc(O)cc2)NC1=O)C(C)C [Ex. 35] (I: Ac-V[Dab]Y[Dap]E[dDab][hSer]WS[Tle][dT] / II: [Dab]T[Dap][Dab][Dab][dL]L[Dab][Dab]T; lactam I:2-I:C, II:4-II:C; amide I:5-II:N)	0.25 µg/mL (≈ 0.108 µM)	0.25 µg/mL (≈ 0.108 µM)	1 µg/mL (≈ 0.434 µM)	0.125 µg/mL (≈ 0.0542 µM)	0.125 µg/mL (≈ 0.0542 µM)	0.25 µg/mL (≈ 0.108 µM)	0.25 µg/mL (≈ 0.108 µM)	0.25 µg/mL (≈ 0.108 µM)	<1%
CC(=O)N[C@@H](Cc1ccccc1)C(=O)N[C@H]1CCCNC(=O)[C@@H]([C@H](C)O)NC(=O)[C@H](C(C)(C)C)NC(=O)[C@H](CO)NC(=O)[C@H](Cc2c[nH]c3ccccc23)NC(=O)[C@H](CCO)NC(=O)[C@@H](CCN)NC(=O)[C@H](CCC(=O)N[C@@H](CCN)C(=O)N[C@H](C(=O)N[C@@H](CN)C(=O)N[C@H]2CCNC(=O)[C@H]([C@@H](C)O)NC(=O)[C@H](CCN)NC(=O)[C@H](CCN)NC(=O)[C@H](CC(C)C)NC(=O)[C@@H](CC(C)C)NC(=O)[C@H](CCN)NC2=O)[C@@H](C)O)NC(=O)[C@H](CN)NC(=O)[C@H](Cc2ccc(O)cc2)NC1=O [Ex. 36] (I: Ac-F[Orn]Y[Dap]E[dDab][hSer]WS[Tle][dT] / II: [Dab]T[Dap][Dab][Dab][dL]L[Dab][Dab]T; lactam I:2-I:C, II:4-II:C; amide I:5-II:N)	0.25 µg/mL (≈ 0.106 µM)	0.25 µg/mL (≈ 0.106 µM)	0.125 µg/mL (≈ 0.0528 µM)	0.0625 µg/mL (≈ 0.0264 µM)	0.0625 µg/mL (≈ 0.0264 µM)	0.125 µg/mL (≈ 0.0528 µM)	0.125 µg/mL (≈ 0.0528 µM)	0.0625 µg/mL (≈ 0.0264 µM)	<1%
CC(=O)N[C@H](C(=O)N[C@H]1CCCNC(=O)[C@@H]([C@H](C)O)NC(=O)[C@H](C(C)C)NC(=O)[C@H](CO)NC(=O)[C@H](Cc2c[nH]c3ccccc23)NC(=O)[C@H](CCN)NC(=O)[C@@H](CCN)NC(=O)[C@H](CCC(=O)N[C@@H](CCN)C(=O)N[C@H](C(=O)N[C@@H](CN)C(=O)N[C@H]2CCNC(=O)[C@H]([C@@H](C)O)NC(=O)[C@H](CCN)NC(=O)[C@H](CCN)NC(=O)[C@H](CC(C)C)NC(=O)[C@@H](CC(C)C)NC(=O)[C@H](CCN)NC2=O)[C@@H](C)O)NC(=O)[C@H](CN)NC(=O)[C@H](Cc2ccc(O)cc2)NC1=O)C(C)C [Ex. 37] (I: Ac-V[Orn]Y[Dap]E[dDab][Dab]WSV[dT] / II: [Dab]T[Dap][Dab][Dab][dL]L[Dab][Dab]T; lactam I:2-I:C, II:4-II:C; amide I:5-II:N)	0.5 µg/mL (≈ 0.217 µM)	2 µg/mL (≈ 0.868 µM)	0.5 µg/mL (≈ 0.217 µM)	0.125 µg/mL (≈ 0.0542 µM)	0.25 µg/mL (≈ 0.108 µM)	0.25 µg/mL (≈ 0.108 µM)	0.25 µg/mL (≈ 0.108 µM)	1 µg/mL (≈ 0.434 µM)	1%
CC(C)CCCCC(=O)N[C@H](C(=O)N[C@H]1CSSC[C@@H](C(=O)N[C@@H](CO)C(N)=O)NC(=O)[C@H](C(C)C)NC(=O)[C@H](CCO)NC(=O)[C@H](Cc2c[nH]c3ccccc23)NC(=O)[C@H](CCO)NC(=O)[C@@H](CCN)NC(=O)[C@H](CCC(=O)N[C@@H](CCN)C(=O)N[C@H](C(=O)N[C@@H](CCN)C(=O)N[C@H]2CCNC(=O)[C@H]([C@@H](C)O)NC(=O)[C@H](CCN)NC(=O)[C@H](CCN)NC(=O)[C@H](CC(C)C)NC(=O)[C@@H](CC(C)C)NC(=O)[C@H](CCN)NC2=O)[C@@H](C)O)NC(=O)[C@H](CCN)NC(=O)[C@H](Cc2ccc(O)cc2)NC1=O)C(C)C [Ex. 40] (I: {Heptanoyl(6-Me)}-VCY[Dab]E[dDab][hSer]W[hSer]VCS-NH2 / II: [Dab]T[Dab][Dab][Dab][dL]L[Dab][Dab]T; disulfide I:2-I:11; amide I:5-II:N; lactam II:4-II:C)	0.25 µg/mL (≈ 0.099 µM)	0.25 µg/mL (≈ 0.099 µM)	1 µg/mL (≈ 0.396 µM)	1 µg/mL (≈ 0.396 µM)	0.125 µg/mL (≈ 0.0495 µM)	0.5 µg/mL (≈ 0.198 µM)	0.5 µg/mL (≈ 0.198 µM)	0.5 µg/mL (≈ 0.198 µM)	2%
CC(=O)N[C@H](C(=O)N[C@H]1CSSC[C@@H](C(=O)N[C@@H](CO)C(N)=O)NC(=O)[C@H](C(C)(C)C)NC(=O)[C@H](CO)NC(=O)[C@H](Cc2c[nH]c3ccccc23)NC(=O)[C@H]([C@@H](C)O)NC(=O)[C@@H](CCN)NC(=O)[C@H](CCC(=O)N[C@@H](CCN)C(=O)N[C@H](C(=O)N[C@@H](CCN)C(=O)N[C@H]2CCNC(=O)[C@H]([C@@H](C)O)NC(=O)[C@H](CCN)NC(=O)[C@H](CCN)NC(=O)[C@H](CC(C)C)NC(=O)[C@@H](CC(C)C)NC(=O)[C@H](CCN)NC2=O)[C@@H](C)O)NC(=O)[C@H](CCN)NC(=O)[C@H](Cc2ccc(O)cc2)NC1=O)C(C)C [Ex. 44] (I: Ac-VCY[Dab]E[dDab]TWS[Tle]CS-NH2 / II: [Dab]T[Dab][Dab][Dab][dL]L[Dab][Dab]T; disulfide I:2-I:11; amide I:5-II:N; lactam II:4-II:C)	0.125 µg/mL (≈ 0.0512 µM)	0.25 µg/mL (≈ 0.102 µM)	0.125 µg/mL (≈ 0.0512 µM)	0.125 µg/mL (≈ 0.0512 µM)	0.0625 µg/mL (≈ 0.0256 µM)	0.125 µg/mL (≈ 0.0512 µM)	0.125 µg/mL (≈ 0.0512 µM)	0.125 µg/mL (≈ 0.0512 µM)	<1%
CC(=O)N[C@H](C(=O)N[C@H]1CSSC[C@@H](C(=O)N[C@@H](CO)C(N)=O)NC(=O)[C@H](C(C)C)NC(=O)[C@H](CO)NC(=O)[C@H](Cc2c[nH]c3ccccc23)NC(=O)[C@H]([C@@H](C)O)NC(=O)[C@@H](CCN)NC(=O)[C@H](CCC(=O)N[C@@H](CCN)C(=O)N[C@H](C(=O)N[C@@H](CCN)C(=O)N[C@H]2CCNC(=O)[C@H]([C@@H](C)O)NC(=O)[C@H](CCN)NC(=O)[C@H](CCN)NC(=O)[C@H](CC(C)C)NC(=O)[C@@H](CC(C)C)NC(=O)[C@H](CCN)NC2=O)[C@@H](C)O)NC(=O)[C@H](CCN)NC(=O)[C@H](Cc2ccc(O)cc2)NC1=O)C(C)C [Ex. 45] (I: Ac-VCY[Dab]E[dDab]TWSVCS-NH2 / II: [Dab]T[Dab][Dab][Dab][dL]L[Dab][Dab]T; disulfide I:2-I:11; amide I:5-II:N; lactam II:4-II:C)	0.125 µg/mL (≈ 0.0515 µM)	0.5 µg/mL (≈ 0.206 µM)	0.5 µg/mL (≈ 0.206 µM)	0.0625 µg/mL (≈ 0.0258 µM)	0.0625 µg/mL (≈ 0.0258 µM)	0.125 µg/mL (≈ 0.0515 µM)	0.25 µg/mL (≈ 0.103 µM)	0.25 µg/mL (≈ 0.103 µM)	<1%
CC(=O)N[C@H](C(=O)N[C@H]1CSSC[C@@H](C(=O)N[C@@H](CO)C(N)=O)NC(=O)[C@H](C(C)(C)C)NC(=O)[C@H](CO)NC(=O)[C@H](Cc2c[nH]c3ccccc23)NC(=O)[C@H]([C@@H](C)O)NC(=O)[C@@H](CCN)NC(=O)[C@H](CCC(=O)N[C@@H](CCN)C(=O)N[C@H](C(=O)N[C@@H](CCN)C(=O)N[C@H]2CCNC(=O)[C@H]([C@@H](C)O)NC(=O)[C@H](CCN)NC(=O)[C@H](CCN)NC(=O)[C@H](CC(C)C)NC(=O)[C@@H](CC(C)C)NC(=O)[C@H](CCN)NC2=O)[C@@H](C)O)NC(=O)[C@H](CO)NC(=O)[C@H](Cc2ccc(O)cc2)NC1=O)C(C)C [Ex. 46] (I: Ac-VCYSE[dDab]TWS[Tle]CS-NH2 / II: [Dab]T[Dab][Dab][Dab][dL]L[Dab][Dab]T; disulfide I:2-I:11; amide I:5-II:N; lactam II:4-II:C)	0.125 µg/mL (≈ 0.0515 µM)	0.5 µg/mL (≈ 0.206 µM)	0.125 µg/mL (≈ 0.0515 µM)	0.0625 µg/mL (≈ 0.0257 µM)	0.0625 µg/mL (≈ 0.0257 µM)	0.125 µg/mL (≈ 0.0515 µM)	0.125 µg/mL (≈ 0.0515 µM)	0.125 µg/mL (≈ 0.0515 µM)	2%
CC(C)C[C@@H]1NC(=O)[C@@H](CC(C)C)NC(=O)[C@H](CCN)NC(=O)[C@@H](NC(=O)[C@H](CCN)NC(=O)[C@@H](NC(=O)[C@H](CCN)NC(=O)CC[C@@H]2NC(=O)[C@H](CCN)NC(=O)[C@H](Cc3ccc(O)cc3)NC(=O)[C@@H](NC(=O)[C@@H](N)C(C)C)CSSC[C@@H](C(=O)N[C@@H](CO)C(N)=O)NC(=O)[C@H](C(C)(C)C)NC(=O)[C@H](CO)NC(=O)[C@H](Cc3c[nH]c4ccccc34)NC(=O)[C@H]([C@@H](C)O)NC(=O)[C@@H](CCN)NC2=O)[C@@H](C)O)CCNC(=O)[C@H]([C@@H](C)O)NC(=O)[C@H](CCN)NC(=O)[C@H](CCN)NC1=O [Ex. 47] (I: H-VCY[Dab]E[dDab]TWS[Tle]CS-NH2 / II: [Dab]T[Dab][Dab][Dab][dL]L[Dab][Dab]T; disulfide I:2-I:11; amide I:5-II:N; lactam II:4-II:C)	0.125 µg/mL (≈ 0.0521 µM)	1 µg/mL (≈ 0.417 µM)	0.25 µg/mL (≈ 0.104 µM)	0.125 µg/mL (≈ 0.0521 µM)	0.0625 µg/mL (≈ 0.0261 µM)	0.125 µg/mL (≈ 0.0521 µM)	4 µg/mL (≈ 1.67 µM)	0.125 µg/mL (≈ 0.0521 µM)	<1%
